PubChem BioAssay (NCI)
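Growth conditions: 96-well plates. Treatment: test compound, 48 hours, 5 concentrations. Analysis: linear interpolation between bracketing concentrations; unreached endpoints set to highest concentration. GI50: concentration for 50% inhibition of growth. TGI marks complete inhibition of growth.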

Tests used:
Test in all cases: NCI anticancer screen, dose series, 48 h
786-0 renal = system: 786-0 renal
A498 renal = system: A498 renal
A549 NSCLC = system: A549 NSCLC
ACHN renal = system: ACHN renal
BT-549 breast = system: BT-549 breast
CAKI-1 renal = system: CAKI-1 renal
CCRF-CEM leukemia = system: CCRF-CEM leukemia
COLO 205 colon = system: COLO 205 colon
DU-145 prostate = system: DU-145 prostate
EKVX NSCLC = system: EKVX NSCLC
HCC-2998 colon = system: HCC-2998 colon
HCT-116 colon = system: HCT-116 colon
HCT-15 colon = system: HCT-15 colon
HL-60(TB) leukemia = system: HL-60(TB) leukemia
HOP-62 NSCLC = system: HOP-62 NSCLC
HOP-92 NSCLC = system: HOP-92 NSCLC
HS 578T breast = system: HS 578T breast
HT29 colon = system: HT29 colon
IGROV1 ovarian = system: IGROV1 ovarian
K-562 leukemia = system: K-562 leukemia
KM12 colon = system: KM12 colon
LOX IMVI melanoma = system: LOX IMVI melanoma
M14 melanoma = system: M14 melanoma
MALME-3M melanoma = system: MALME-3M melanoma
MCF7 breast = system: MCF7 breast
MDA-MB-231 breast = system: MDA-MB-231 breast
MDA-MB-435 = system: MDA-MB-435
MOLT-4 leukemia = system: MOLT-4 leukemia
NCI-H226 lung = system: NCI-H226 lung
NCI-H23 lung = system: NCI-H23 lung
NCI-H460 lung = system: NCI-H460 lung
NCI-H522 lung = system: NCI-H522 lung
NCI/ADR-RES ovarian = system: NCI/ADR-RES ovarian
OVCAR-3 ovarian = system: OVCAR-3 ovarian
OVCAR-4 ovarian = system: OVCAR-4 ovarian
OVCAR-5 ovarian = system: OVCAR-5 ovarian
OVCAR-8 ovarian = system: OVCAR-8 ovarian
PC-3 prostate = system: PC-3 prostate
RPMI-8226 leukemia = system: RPMI-8226 leukemia
RXF 393 renal = system: RXF 393 renal
SF-268 CNS = system: SF-268 CNS
SF-295 CNS = system: SF-295 CNS
SF-539 CNS = system: SF-539 CNS
SK-MEL-2 melanoma = system: SK-MEL-2 melanoma
SK-MEL-28 melanoma = system: SK-MEL-28 melanoma
SK-MEL-5 melanoma = system: SK-MEL-5 melanoma
SK-OV-3 ovarian = system: SK-OV-3 ovarian
SN12C renal = system: SN12C renal
SNB-19 CNS = system: SNB-19 CNS
SNB-75 CNS = system: SNB-75 CNS
SR leukemia = system: SR leukemia
SW-620 colon = system: SW-620 colon
T-47D breast = system: T-47D breast
TK-10 renal = system: TK-10 renal
U251 CNS = system: U251 CNS
UACC-257 melanoma = system: UACC-257 melanoma
UACC-62 melanoma = system: UACC-62 melanoma
UO-31 renal = system: UO-31 renal

Compound: COc1cccc2[nH]c3c4c(c5c(c3c12)C(=O)N(CN1CCN(C)CC1)C5=O)CCC4
- GI50 (786-0 renal): 13.3 µM
- TGI (786-0 renal): 31.8 µM
- GI50 (A498 renal): 2730 nM
- TGI (A498 renal): > 100 µM
- GI50 (A549 NSCLC): 8.49 µM
- TGI (A549 NSCLC): 25.6 µM
- GI50 (ACHN renal): 5.81 µM
- TGI (ACHN renal): 36.4 µM
- GI50 (BT-549 breast): 19 µM
- TGI (BT-549 breast): 99.1 µM
- GI50 (CAKI-1 renal): 4.34 µM
- TGI (CAKI-1 renal): 38.8 µM
- GI50 (CCRF-CEM leukemia): 5.55 µM
- TGI (CCRF-CEM leukemia): 33.3 µM
- GI50 (COLO 205 colon): 11.4 µM
- TGI (COLO 205 colon): 35.6 µM
- GI50 (DU-145 prostate): 9.22 µM
- TGI (DU-145 prostate): 21.6 µM
- GI50 (EKVX NSCLC): 14.1 µM
- TGI (EKVX NSCLC): 83.3 µM
- GI50 (HCC-2998 colon): 15.6 µM
- TGI (HCC-2998 colon): > 76 µM
- GI50 (HCT-116 colon): 13.2 µM
- TGI (HCT-116 colon): 45.7 µM
- GI50 (HCT-15 colon): 7.33 µM
- TGI (HCT-15 colon): 25.9 µM
- GI50 (HL-60(TB) leukemia): 19.6 µM
- TGI (HL-60(TB) leukemia): > 75.1 µM
- GI50 (HOP-62 NSCLC): 14.5 µM
- TGI (HOP-62 NSCLC): 39.1 µM
- GI50 (HOP-92 NSCLC): 15.1 µM
- TGI (HOP-92 NSCLC): 44.9 µM
- GI50 (HS 578T breast): 18.2 µM
- TGI (HS 578T breast): > 88.3 µM
- GI50 (HT29 colon): 8.99 µM
- TGI (HT29 colon): 29.8 µM
- GI50 (IGROV1 ovarian): 4.79 µM
- TGI (IGROV1 ovarian): > 46.1 µM
- GI50 (K-562 leukemia): 16.3 µM
- TGI (K-562 leukemia): > 67.8 µM
- GI50 (KM12 colon): 12.3 µM
- TGI (KM12 colon): 49.7 µM
- GI50 (LOX IMVI melanoma): 11.8 µM
- TGI (LOX IMVI melanoma): 40.7 µM
- GI50 (M14 melanoma): 9.91 µM
- TGI (M14 melanoma): > 80.4 µM
- GI50 (MALME-3M melanoma): 6.43 µM
- TGI (MALME-3M melanoma): 63.2 µM
- GI50 (MCF7 breast): 9.27 µM
- TGI (MCF7 breast): 39.7 µM
- GI50 (MDA-MB-231 breast): 15 µM
- TGI (MDA-MB-231 breast): 31.3 µM
- GI50 (MDA-MB-435): 7.37 µM
- TGI (MDA-MB-435): 30.7 µM
- GI50 (MOLT-4 leukemia): 5.9 µM
- TGI (MOLT-4 leukemia): 42.3 µM
- GI50 (NCI-H226 lung): 9.46 µM
- TGI (NCI-H226 lung): > 90.9 µM
- GI50 (NCI-H23 lung): 15 µM
- TGI (NCI-H23 lung): > 72.5 µM
- GI50 (NCI-H460 lung): 6.35 µM
- TGI (NCI-H460 lung): 25.8 µM
- GI50 (NCI-H522 lung): 8.95 µM
- TGI (NCI-H522 lung): > 56.9 µM
- GI50 (NCI/ADR-RES ovarian): 12.2 µM
- TGI (NCI/ADR-RES ovarian): 37.5 µM
- GI50 (OVCAR-3 ovarian): 13.7 µM
- TGI (OVCAR-3 ovarian): 34.2 µM
- GI50 (OVCAR-4 ovarian): 8.03 µM
- TGI (OVCAR-4 ovarian): 26.9 µM
- GI50 (OVCAR-5 ovarian): 14.5 µM
- TGI (OVCAR-5 ovarian): 44.6 µM
- GI50 (OVCAR-8 ovarian): 8.6 µM
- TGI (OVCAR-8 ovarian): 26.5 µM
- GI50 (PC-3 prostate): 6.58 µM
- TGI (PC-3 prostate): > 46.7 µM
- GI50 (RPMI-8226 leukemia): 4.6 µM
- TGI (RPMI-8226 leukemia): 23.8 µM
- GI50 (RXF 393 renal): 3.45 µM
- TGI (RXF 393 renal): 13.6 µM
- GI50 (SF-268 CNS): 13.5 µM
- TGI (SF-268 CNS): > 52.3 µM
- GI50 (SF-295 CNS): 10.1 µM
- TGI (SF-295 CNS): 25.6 µM
- GI50 (SF-539 CNS): 11.3 µM
- TGI (SF-539 CNS): 26 µM
- GI50 (SK-MEL-2 melanoma): 22.7 µM
- TGI (SK-MEL-2 melanoma): > 100 µM
- GI50 (SK-MEL-28 melanoma): 10.8 µM
- TGI (SK-MEL-28 melanoma): 29.8 µM
- GI50 (SK-MEL-5 melanoma): 8.26 µM
- TGI (SK-MEL-5 melanoma): > 100 µM
- GI50 (SK-OV-3 ovarian): 11.7 µM
- TGI (SK-OV-3 ovarian): 29.8 µM
- GI50 (SN12C renal): 11.2 µM
- TGI (SN12C renal): 33.9 µM
- GI50 (SNB-19 CNS): 13.3 µM
- TGI (SNB-19 CNS): 34.6 µM
- GI50 (SNB-75 CNS): 9.2 µM
- TGI (SNB-75 CNS): 40.5 µM
- GI50 (SR leukemia): 2110 nM
- TGI (SR leukemia): 11.1 µM
- GI50 (SW-620 colon): 13.6 µM
- TGI (SW-620 colon): 38 µM
- GI50 (T-47D breast): 4.62 µM
- TGI (T-47D breast): > 73.9 µM
- GI50 (TK-10 renal): 6.85 µM
- TGI (TK-10 renal): 28.3 µM
- GI50 (U251 CNS): 6.3 µM
- TGI (U251 CNS): 21.8 µM
- GI50 (UACC-257 melanoma): 14.8 µM
- TGI (UACC-257 melanoma): 45.1 µM
- GI50 (UACC-62 melanoma): 9.9 µM
- TGI (UACC-62 melanoma): 30.9 µM
- GI50 (UO-31 renal): 2760 nM
- TGI (UO-31 renal): > 23.8 µM
